This is an account of results in publication PMC2855385 (Biochimica et biophysica acta, 2009).

Where two headings read alike, the source gives them in different places.

In assay [1] the target is T1, E. coli peptide deformylase (PDFEc) (Escherichia coli, UniProt P0A6K3). It counts as biochemical. To be noted: for Initial rate: AMT 500 µM; for remaining activity at 500 µM: read-out: % of control, AMT 500 µM.
Assay [2] addresses T1, E. coli peptide deformylase (PDFEc). Put plainly: Slow-binding inhibition of PDFEc, kobs as a function of inhibitor concentration. It counts as biochemical.
Setting [3] is: solvent dimethylformamide, 1 week post.
Where [4] appears, read: solvent ethanol, more than 2 days incubation.

T1 sequence (P0A6K3 whole entry): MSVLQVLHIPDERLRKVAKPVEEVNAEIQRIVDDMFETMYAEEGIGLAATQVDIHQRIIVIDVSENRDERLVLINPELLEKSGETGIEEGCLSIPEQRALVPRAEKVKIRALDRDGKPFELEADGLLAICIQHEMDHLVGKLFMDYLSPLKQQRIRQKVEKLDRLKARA

Take `Nc1nnc(S)s1` [AMT, 2-amino-5-mercapto-1,3,4-thiadiazole]: in assay [1] (500 µM AMT incubated in DMF for 30 min), the “initial rate of the enzyme catalyzed reaction versus control” value is “barely lower than that of the control”. Besides, the Initial rate in assay [1] (solvent acetonitrile, more than 2 days incubation) amounted to 16.3 mOD min^−1; in assay [1] (setting [3]), 7.9 mOD min^−1; in assay [1] (solvent dimethylformamide, tested immediately), 17.0 mOD min^−1; in assay [1] (solvent dimethylsulfoxide, more than 2 days incubation), 15.9 mOD min^−1; in assay [1] (setting [4]), 16.9 mOD min^−1. Also, the “inhibitory effect on PDFEc” value in assay [1] (AMT freshly prepared in DMF, or dissolved in any other solvent and aged at 25 °C for any length of time) is reported as “No inhibitory effect”. In addition, the “inhibition of PDFEc” value in assay [1] (AMT incubated with 0.06% H2O2 in buffer) is listed as “no inhibition”. Moreover, the figures for the remaining activity at 500 µM in assay [1] (setting [3]) and in assay [1] (setting [4]) were 47% and 100%, respectively. In addition, the “enhancement of apparent binding affinity by the slow-binding step (Ki / Ki^*)” value in assay [2] is given as “about 30 fold”.
